ChEMBL document CHEMBL1201862, “PubChem BioAssay data set” (2004)
The source made the active and inactive calls.

How the values were obtained:
A549 = assay: viability loss in A549 cells – cell-based, plate reader, cherry-pick samples, cytotoxicity control, dose response (AID 687028); type: functional; conditions: Homo sapiens
[1] = target: T1, Probable nicotinate-nucleotide adenylyltransferase (Staphylococcus aureus (strain N315), UniProt P65502); type: functional, Staphylococcus aureus subsp. aureus N315;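 as to IC50 Mean: confirmatory dose-response retesting of NadD inhibitor hits first found in an ultra-high-throughput screen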
[2] = viability of uninfected HEp-2 cells – cell-based, HTS, cytotoxicity control for RSV inhibitor project, dose response (AID 2410); type: functional; conditions: human respiratory syncytial virus
[3] = target: T1, Probable nicotinate-nucleotide adenylyltransferase; type: functional, Staphylococcus aureus subsp. aureus N315; conditions: read-out: IC50_Mean
[4] = Trypanosoma cruzi growth suppression in host cells – NIH3T3 host cells, beta-gal luminescence, confirmation (AID 2044); type: functional, cell-based;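 also: intracellular parasites grown in NIH/3T3 mouse fibroblasts as host cells; luminescent beta-galactosidase reporter signal from transgenic T. cruzi replicating inside host cells; inhibitors lower the luminescence signal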
Albumin = Albumin (Bos taurus, UniProt P02769); assay: Counterscreen for inhibitors of T-cell receptor (TCR)-CD3 interaction: Fluorescence-based biochemical high throughput dose response assay to identify inhibitors of T-cell receptor (TCR)-CD3 interaction using a TAMRA-labeled BSA probe.; type: functional
[5] = NIH3T3 cell viability loss – ATP luminescence, mouse fibroblasts, counter-screen, dose response (AID 2010); type: functional, cell-based;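 also: cells exposed to compound for about 90 hours before reading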
[6] = intracellular Trypanosoma cruzi inhibitors in host cells – cell-based, plate reader, cherry-pick samples, set 3, dose response (AID 651818); type: functional;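 also: compounds incubated with infected cells for about four days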
[7] = mouse fibroblast viability loss – cell-based, cherry-pick samples, set 2, cytotoxicity control for T. cruzi growth inhibitor project, dose response (AID 651817); type: functional; conditions: NIH3T3
Beta-lactamase [8] = target: T2, Beta-lactamase (Pseudomonas aeruginosa, UniProt Q79MP6); assay: inhibition of IMP-1 beta-lactamase activity – biochemical, epi-absorbance, selectivity assay for VIM-2 inhibitor project, dose response (AID 1920)
Beta-lactamase [9] = target: Beta-lactamase (Salmonella choleraesuis (strain SC-B67), UniProt Q5J463); assay: Epi-absorbance-based counterscreen for selective VIM-2 inhibitors: dose response biochemical high throughput screening assay to identify inhibitors of TEM-1 serine-beta-lactamase.
Beta-lactamase [10] = target: T2, Beta-lactamase; assay: […] counterscreen for selective VIM-2 inhibitors: dose response biochemical high throughput screening assay to identify inhibitors of IMP-1 metallo-beta-lactamase.
[11] = target: T3, Carboxy-terminal domain RNA polymerase II polypeptide A small phosphatase 1 (Homo sapiens, UniProt Q9GZU7); assay: CTDSP1 inhibitors, concentration-response, biochemical, absorbance readout, ultra-high-throughput screen actives (AID 540297); type: functional
T3 sequence (Q9GZU7 whole entry): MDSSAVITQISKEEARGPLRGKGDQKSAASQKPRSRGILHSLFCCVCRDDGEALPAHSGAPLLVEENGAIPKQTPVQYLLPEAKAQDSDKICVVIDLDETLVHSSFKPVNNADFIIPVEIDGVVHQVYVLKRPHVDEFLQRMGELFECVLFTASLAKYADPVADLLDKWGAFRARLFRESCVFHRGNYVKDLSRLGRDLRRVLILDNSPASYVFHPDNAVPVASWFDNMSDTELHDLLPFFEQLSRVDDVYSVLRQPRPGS

[12] = target: T4, Low molecular weight phosphotyrosine protein phosphatase (Homo sapiens, UniProt P24666); type: functional; conditions: read-out: IC50_Mean
T4 sequence (P24666 whole entry): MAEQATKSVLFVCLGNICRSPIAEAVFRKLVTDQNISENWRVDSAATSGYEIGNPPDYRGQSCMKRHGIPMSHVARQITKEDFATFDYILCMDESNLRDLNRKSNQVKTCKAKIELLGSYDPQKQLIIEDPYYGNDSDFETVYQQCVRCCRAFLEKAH

[13] = target: T4, Low molecular weight phosphotyrosine protein phosphatase; type: functional; conditions: read-out: IC50_Mean; remark: listed apart in the source
[14] = target: T5, Small ubiquitin-related modifier 2 (Homo sapiens, UniProt P61956); assay: disruption of SUMO2 interaction with SIM peptide – biochemical, fluorescence polarization, uHTS hits, selectivity assay for SUMO1 interaction inhibitor project, dose response (AID 624385); type: functional; conditions: read-out: IC50_Mean
[15] = target: T5, Small ubiquitin-related modifier 2; assay: SUMO2 binding disruption by SUMO1 hits – biochemical, FRET, human SUMO2, uHTS hits, selectivity assay for SUMO1 interaction inhibitor project, dose response (AID 624384); type: functional; conditions: read-out: IC50_Mean
Aminopeptidase N = target: T6, Aminopeptidase N (Plasmodium falciparum FcB1/Columbia, UniProt O96935); assay: malaria alanyl aminopeptidase activity blockers – biochemical, fluorogenic H-Leu-NHMec substrate, 1536-well (AID 1445); parameters: species or system Plasmodium falciparum 3D7, 3D7
T6 sequence (O96935 whole entry): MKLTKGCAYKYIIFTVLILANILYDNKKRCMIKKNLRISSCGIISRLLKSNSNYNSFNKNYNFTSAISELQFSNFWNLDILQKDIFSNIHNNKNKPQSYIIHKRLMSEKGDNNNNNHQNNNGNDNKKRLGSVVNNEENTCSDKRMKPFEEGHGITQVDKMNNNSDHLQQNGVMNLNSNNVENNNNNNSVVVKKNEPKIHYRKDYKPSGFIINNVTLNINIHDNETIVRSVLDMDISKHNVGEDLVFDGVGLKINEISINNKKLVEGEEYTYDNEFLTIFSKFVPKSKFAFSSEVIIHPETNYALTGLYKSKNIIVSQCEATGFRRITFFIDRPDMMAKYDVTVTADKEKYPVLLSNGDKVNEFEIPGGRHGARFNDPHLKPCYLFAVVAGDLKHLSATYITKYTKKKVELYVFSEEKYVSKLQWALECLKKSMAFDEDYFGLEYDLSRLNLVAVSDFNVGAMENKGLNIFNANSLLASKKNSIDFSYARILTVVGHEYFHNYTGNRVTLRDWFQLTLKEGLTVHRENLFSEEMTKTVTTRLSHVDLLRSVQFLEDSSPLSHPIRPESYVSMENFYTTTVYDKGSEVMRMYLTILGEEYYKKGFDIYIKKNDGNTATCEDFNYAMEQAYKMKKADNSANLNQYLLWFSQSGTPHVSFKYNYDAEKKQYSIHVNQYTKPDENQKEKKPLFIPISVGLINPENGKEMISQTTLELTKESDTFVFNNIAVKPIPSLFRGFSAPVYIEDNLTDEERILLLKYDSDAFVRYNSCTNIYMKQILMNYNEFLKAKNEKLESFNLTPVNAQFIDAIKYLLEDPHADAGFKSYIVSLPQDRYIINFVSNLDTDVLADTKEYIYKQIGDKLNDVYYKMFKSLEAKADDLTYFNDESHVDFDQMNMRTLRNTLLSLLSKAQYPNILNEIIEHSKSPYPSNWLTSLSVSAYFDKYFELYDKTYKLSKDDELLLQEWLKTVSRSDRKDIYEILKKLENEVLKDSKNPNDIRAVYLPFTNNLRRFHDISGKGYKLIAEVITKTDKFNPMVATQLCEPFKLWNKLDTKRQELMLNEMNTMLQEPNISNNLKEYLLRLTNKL

[16] = target: T7, Small ubiquitin-related modifier 1 (Homo sapiens, UniProt P63165); assay: SUMO1 protein interaction blockers, potency – biochemical, fluorescence polarization, uHTS hits, dose response (AID 624382); type: functional; conditions: read-out: IC50_Mean
[17] = target: T7, Small ubiquitin-related modifier 1; assay: SUMO1 protein-protein binding blockers, potency – biochemical, FRET, dose response (AID 624383); type: functional; conditions: read-out: IC50_Mean
[18] = target: T8, DNA repair and recombination protein RAD54-like (Homo sapiens, UniProt Q92698); assay: RAD54 Holliday junction migration blockers – biochemical, fluorescence, cherry-picked samples, dose series, confirmation (AID 651657); type: functional
T8 sequence (Q92698 whole entry): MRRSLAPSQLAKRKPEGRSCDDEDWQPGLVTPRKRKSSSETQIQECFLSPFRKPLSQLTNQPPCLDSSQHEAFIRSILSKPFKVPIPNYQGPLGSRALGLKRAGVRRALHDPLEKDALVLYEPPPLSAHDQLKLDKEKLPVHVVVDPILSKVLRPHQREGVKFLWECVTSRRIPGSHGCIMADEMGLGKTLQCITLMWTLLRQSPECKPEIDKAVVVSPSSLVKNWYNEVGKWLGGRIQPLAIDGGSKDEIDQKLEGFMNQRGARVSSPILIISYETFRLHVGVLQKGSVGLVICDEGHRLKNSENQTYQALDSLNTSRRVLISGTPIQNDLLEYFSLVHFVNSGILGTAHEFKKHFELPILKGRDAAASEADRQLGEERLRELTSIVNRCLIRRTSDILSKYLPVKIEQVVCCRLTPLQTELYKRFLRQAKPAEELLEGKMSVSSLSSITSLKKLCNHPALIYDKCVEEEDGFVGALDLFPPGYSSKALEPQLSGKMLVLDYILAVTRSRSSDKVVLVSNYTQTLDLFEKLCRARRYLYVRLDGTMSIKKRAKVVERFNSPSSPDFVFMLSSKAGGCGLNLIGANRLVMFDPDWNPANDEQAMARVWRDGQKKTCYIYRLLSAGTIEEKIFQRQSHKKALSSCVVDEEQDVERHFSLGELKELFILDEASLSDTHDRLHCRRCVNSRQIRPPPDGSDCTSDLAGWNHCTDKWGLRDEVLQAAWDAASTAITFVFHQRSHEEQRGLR

[19] = cytotoxicity toward MDA-MB-231 breast cancer cells – cell-based, CellTiter-Glo luminescence, cherry-pick, cytotoxicity control for RAD54 inhibitor project, dose response (AID 651692); type: functional
[20] = target: T9, Sentrin-specific protease 1 (Homo sapiens, UniProt Q9P0U3); assay: SENP1 catalytic domain blockers, concentration series – biochemical, kinetic FRET, dose response (AID 651697); type: functional; conditions: read-out: IC50_Mean
Large T antigen = Large T antigen (Simian virus 40, UniProt P03070); type: functional, Betapolyomavirus macacae;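 also: Confirmatory-stage PubChem screen for compounds that inhibit SV40 T antigen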
[21] = target: T9, Sentrin-specific protease 1; assay: Dose response confirmation of small molecule inhibitors of the catalytic domain of the SUMO protease, SENP1 in a FRET assay.; type: functional; conditions: read-out: IC50_Mean
Streptococcus = assay: GAS UMAA2166 growth inhibition – luminescence, BacTiterGlo, counter-screen for streptokinase expression inhibitor project, dose response (AID 1915); type: functional, organism-based; conditions: read-out: EC50;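 also: potency for reduction of bacterial viability or growth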
[22] = tested on: Streptococcus sp. 'group A'; assay: Streptococcus pyogenes SK(-)GAS viability under kanamycin – luminescence, BacTiterGlo, confirmation, counter-screen for streptokinase expression inhibitor project, dose response (AID 1900); type: functional, organism-based
[23] = target: Voltage-gated inwardly rectifying potassium channel KCNH2 (Homo sapiens, UniProt Q12809); assay: concentration-dependent hERG rescue from blockers – cell-based, thallium flux, dose response (AID 2121); type: ADME
[24] = target: Fructose-bisphosphate aldolase (Mycobacterium tuberculosis, UniProt P9WQA3); assay: Fluorescence-based biochemical high throughput dose response assay for inhibitors of the fructose-bisphosphate aldolase (FBA) of M. tuberculosis.; type: functional
Streptokinase A = target: T10, Streptokinase A (Streptococcus pyogenes serotype M1, UniProt P10520); assay: viability-normalized secreted streptokinase activity reduction – plasminogen activation absorbance, OD405, dose response (AID 1914); type: functional, Streptococcus pyogenes M1 GAS;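 also: secreted streptokinase activity via plasminogen activation per viability signal from cell pellet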
T10 sequence (P10520 whole entry): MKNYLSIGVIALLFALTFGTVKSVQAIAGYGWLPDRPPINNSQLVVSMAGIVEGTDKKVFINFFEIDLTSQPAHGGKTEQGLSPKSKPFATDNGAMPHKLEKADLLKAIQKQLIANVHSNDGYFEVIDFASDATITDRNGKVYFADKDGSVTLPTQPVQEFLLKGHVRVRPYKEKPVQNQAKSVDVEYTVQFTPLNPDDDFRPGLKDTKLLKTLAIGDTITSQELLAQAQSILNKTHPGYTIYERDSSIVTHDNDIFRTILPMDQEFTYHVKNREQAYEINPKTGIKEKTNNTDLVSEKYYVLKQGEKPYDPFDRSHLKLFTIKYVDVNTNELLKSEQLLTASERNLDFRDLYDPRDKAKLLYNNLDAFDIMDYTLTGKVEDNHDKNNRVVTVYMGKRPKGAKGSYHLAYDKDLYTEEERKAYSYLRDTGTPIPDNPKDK

Beta-galactosidase = Beta-galactosidase (Escherichia coli, UniProt Q8VNN2); assay: Dose response counterscreen for EBI2 assay utilizing the enzyme, b-galactosidase.; type: functional

T9 sequence (Q9P0U3 whole entry, the tested form may be a part): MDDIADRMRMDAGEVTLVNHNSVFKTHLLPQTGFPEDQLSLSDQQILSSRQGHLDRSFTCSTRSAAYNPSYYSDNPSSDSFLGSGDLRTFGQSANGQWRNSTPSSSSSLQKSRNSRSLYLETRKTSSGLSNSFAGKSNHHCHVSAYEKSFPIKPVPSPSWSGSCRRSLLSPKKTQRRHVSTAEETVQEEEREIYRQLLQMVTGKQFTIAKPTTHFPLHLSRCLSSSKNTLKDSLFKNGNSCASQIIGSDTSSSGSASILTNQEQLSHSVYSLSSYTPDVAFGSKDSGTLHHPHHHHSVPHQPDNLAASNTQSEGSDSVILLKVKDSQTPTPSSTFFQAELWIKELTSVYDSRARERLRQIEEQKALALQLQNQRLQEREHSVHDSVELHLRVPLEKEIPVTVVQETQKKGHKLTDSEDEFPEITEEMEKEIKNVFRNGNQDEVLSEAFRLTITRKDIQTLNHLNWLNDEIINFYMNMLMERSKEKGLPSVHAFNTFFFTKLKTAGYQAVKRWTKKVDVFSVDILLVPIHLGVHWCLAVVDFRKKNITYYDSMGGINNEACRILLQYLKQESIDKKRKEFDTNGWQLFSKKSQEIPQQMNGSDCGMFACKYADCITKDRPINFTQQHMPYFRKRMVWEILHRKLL
T1 sequence (P65502 whole entry): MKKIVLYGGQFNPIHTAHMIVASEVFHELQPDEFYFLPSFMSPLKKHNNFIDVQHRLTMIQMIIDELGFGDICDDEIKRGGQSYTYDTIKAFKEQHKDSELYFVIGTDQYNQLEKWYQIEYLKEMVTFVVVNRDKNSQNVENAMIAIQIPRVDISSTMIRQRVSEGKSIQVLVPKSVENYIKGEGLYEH
T5 sequence (P61956 whole entry): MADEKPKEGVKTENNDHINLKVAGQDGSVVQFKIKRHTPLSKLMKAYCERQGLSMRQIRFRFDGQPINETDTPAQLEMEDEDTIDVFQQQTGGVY
T7 sequence (P63165 whole entry): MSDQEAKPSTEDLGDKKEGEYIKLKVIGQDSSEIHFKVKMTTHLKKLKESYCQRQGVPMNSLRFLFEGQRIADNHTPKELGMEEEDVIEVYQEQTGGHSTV
T2 sequence (Q79MP6 whole entry): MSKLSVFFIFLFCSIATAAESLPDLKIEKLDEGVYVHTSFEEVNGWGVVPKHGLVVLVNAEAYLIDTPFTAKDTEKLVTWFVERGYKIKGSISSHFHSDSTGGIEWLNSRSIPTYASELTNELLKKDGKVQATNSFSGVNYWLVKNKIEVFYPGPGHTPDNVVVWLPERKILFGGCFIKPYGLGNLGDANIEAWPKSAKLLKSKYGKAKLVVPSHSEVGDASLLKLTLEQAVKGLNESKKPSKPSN
Chain of Beta-lactamase (Salmonella choleraesuis (strain SC-B67), UniProt Q5J463) (Q5J463 whole entry): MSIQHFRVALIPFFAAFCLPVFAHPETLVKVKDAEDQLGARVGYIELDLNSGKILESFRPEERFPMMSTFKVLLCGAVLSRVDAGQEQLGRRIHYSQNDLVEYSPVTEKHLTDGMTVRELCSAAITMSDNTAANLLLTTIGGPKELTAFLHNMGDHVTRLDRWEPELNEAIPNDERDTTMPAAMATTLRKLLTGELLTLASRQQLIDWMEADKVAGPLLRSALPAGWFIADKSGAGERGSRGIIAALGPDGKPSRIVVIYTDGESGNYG
Chain of Albumin (P02769 whole entry): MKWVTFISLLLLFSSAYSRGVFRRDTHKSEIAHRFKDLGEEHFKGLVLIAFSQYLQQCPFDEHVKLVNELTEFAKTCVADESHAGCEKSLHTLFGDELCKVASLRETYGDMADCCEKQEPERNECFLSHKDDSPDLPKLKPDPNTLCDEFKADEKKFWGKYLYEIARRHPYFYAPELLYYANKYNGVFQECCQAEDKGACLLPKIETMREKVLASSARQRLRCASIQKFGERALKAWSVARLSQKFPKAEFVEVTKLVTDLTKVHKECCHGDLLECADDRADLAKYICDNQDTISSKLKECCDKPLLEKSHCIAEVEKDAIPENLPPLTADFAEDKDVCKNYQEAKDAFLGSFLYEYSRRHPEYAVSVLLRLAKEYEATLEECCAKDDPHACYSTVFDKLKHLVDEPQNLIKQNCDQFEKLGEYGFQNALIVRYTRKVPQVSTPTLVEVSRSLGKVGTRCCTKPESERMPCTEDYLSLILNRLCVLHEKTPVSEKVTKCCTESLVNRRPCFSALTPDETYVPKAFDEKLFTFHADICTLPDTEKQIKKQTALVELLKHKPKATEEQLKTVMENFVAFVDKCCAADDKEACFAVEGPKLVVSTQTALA
Chain of Fructose-bisphosphate aldolase (P9WQA3 whole entry): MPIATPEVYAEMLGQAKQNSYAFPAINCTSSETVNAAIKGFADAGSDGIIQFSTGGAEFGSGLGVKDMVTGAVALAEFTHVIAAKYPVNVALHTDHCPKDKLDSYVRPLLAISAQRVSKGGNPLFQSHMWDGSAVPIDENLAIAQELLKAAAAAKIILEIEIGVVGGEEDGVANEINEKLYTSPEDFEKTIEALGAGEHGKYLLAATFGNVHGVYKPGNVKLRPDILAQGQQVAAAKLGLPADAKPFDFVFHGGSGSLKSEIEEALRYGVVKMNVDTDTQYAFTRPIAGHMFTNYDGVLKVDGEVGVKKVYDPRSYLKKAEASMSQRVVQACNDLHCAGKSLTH
Chain of Large T antigen (P03070 whole entry, the tested form may be a part): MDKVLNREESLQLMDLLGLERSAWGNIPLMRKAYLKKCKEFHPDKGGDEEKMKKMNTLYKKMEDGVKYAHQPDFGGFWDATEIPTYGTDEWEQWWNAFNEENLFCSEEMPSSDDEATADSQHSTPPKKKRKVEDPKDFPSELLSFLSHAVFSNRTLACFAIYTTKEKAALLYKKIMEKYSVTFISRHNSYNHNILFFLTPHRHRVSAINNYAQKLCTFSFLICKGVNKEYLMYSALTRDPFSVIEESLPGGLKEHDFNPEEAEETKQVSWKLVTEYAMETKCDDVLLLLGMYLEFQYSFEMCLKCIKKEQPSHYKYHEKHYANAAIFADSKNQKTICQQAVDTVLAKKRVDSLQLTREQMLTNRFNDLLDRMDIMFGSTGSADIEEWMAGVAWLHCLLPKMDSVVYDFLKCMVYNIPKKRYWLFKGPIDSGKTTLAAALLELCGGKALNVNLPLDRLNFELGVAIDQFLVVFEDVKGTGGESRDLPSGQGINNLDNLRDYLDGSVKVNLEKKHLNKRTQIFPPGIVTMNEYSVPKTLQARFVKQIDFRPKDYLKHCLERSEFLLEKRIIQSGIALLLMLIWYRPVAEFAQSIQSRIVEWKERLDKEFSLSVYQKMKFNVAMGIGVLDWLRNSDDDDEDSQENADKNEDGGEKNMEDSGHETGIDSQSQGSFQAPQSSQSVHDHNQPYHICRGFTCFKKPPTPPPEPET
Chain of Voltage-gated inwardly rectifying potassium channel KCNH2 (Q12809 whole entry): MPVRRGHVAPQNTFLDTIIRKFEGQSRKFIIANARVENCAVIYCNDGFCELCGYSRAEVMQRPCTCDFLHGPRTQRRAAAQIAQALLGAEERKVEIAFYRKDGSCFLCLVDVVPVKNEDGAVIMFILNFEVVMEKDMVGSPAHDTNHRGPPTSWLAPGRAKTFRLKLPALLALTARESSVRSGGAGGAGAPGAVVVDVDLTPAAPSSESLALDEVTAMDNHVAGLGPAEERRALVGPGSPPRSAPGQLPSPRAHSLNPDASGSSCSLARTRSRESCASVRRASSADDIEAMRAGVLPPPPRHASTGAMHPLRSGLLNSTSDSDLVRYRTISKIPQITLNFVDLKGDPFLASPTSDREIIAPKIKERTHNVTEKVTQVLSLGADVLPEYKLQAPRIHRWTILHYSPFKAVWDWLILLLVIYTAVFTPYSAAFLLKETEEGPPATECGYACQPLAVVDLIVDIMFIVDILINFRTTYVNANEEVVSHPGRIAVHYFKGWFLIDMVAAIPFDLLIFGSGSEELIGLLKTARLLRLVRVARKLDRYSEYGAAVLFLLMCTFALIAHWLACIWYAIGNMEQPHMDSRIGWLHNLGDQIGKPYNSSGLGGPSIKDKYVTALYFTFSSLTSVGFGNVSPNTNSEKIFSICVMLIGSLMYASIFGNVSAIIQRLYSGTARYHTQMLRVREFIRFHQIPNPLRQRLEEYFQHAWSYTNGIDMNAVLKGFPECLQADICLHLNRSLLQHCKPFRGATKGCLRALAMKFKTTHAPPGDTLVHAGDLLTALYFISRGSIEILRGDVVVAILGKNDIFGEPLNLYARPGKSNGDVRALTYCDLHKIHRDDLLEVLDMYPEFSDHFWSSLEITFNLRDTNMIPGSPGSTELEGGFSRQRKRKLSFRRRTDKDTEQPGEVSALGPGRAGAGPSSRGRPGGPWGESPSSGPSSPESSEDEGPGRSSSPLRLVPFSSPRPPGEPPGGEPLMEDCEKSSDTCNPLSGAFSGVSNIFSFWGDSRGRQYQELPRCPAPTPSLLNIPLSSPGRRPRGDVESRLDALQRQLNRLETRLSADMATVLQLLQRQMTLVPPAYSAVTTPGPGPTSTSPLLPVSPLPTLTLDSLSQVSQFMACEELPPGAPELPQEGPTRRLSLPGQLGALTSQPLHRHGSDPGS

## Cc1ccc(NC(=O)c2cc(-c3cc(Cl)ccc3C)[nH]n2)cc1NS(C)(=O)=O
A549
  AC50: 23.8 µM (active)

## COCCn1/c(=N/C(=O)c2cc(-c3cccs3)nc3ccccc23)sc2cc(S(N)(=O)=O)ccc21
[1]
  IC50: 12.4 µM (active)
[2]
  CC50: > 50 µM (active)
[3]
  IC50: 23.8 µM (active)
[4]
  EC50: 2.47 µM (active)
Albumin
  IC50: > 94.1 µM (inactive)
[5]
  EC50: > 60 µM (not active)

## Cc1ccc(S(=O)(=O)Nc2ccc3c(c2)CC(=O)N([C@H](C)CO)C[C@@H](C)[C@@H](CN(C)S(=O)(=O)c2ccc(Cl)cc2)O3)cc1
[6]
  AC50: 1.96 µM (active)
[7]
  AC50: 33.1 µM (active)

## Cc1ccc(-c2nnc(S)n2-c2ccccc2)cc1
Beta-lactamase [8]
  IC50: > 59.6 µM (inactive)
Beta-lactamase [9]
  IC50: > 59.6 µM (inactive)
Beta-lactamase [10]
  IC50: > 59.6 µM (inactive)

## O=C(NNC(=O)c1ccc2ccccc2c1)c1ccc(Cl)cc1
[11]
  IC50: > 80 µM (inactive)
[12]
  IC50: 20 µM (inactive)
[13]
  IC50: 54.1 µM (inactive)

## Nc1cccc2[nH]c(C(F)(F)F)nc12
[14]
  IC50: 29.8 µM (inactive)
[15]
  IC50: 10.4 µM (active)
Aminopeptidase N
  IC50: 80.8 µM (active)
[16]
  IC50: 26.8 µM (inactive)
[17]
  IC50: 37 µM (inactive)

## CCCCN(CC)CCNC(=O)c1cc2c(O)nc3ccc(C)cc3c2s1
[18]
  AC50: 100 µM (inactive)
[19]
  AC50: 23.1 µM (active)

## Cc1ccc(-c2nc3ncccn3c2NC2CCCCC2)o1
[20]
  IC50: 19.7 µM (active)
Large T antigen
  IC50: 25.9 µM (active)
[21]
  IC50: 8.98 µM (active)

## Sc1nc(-c2ccccc2)cn1/N=C/c1cccc2ccccc12
Streptococcus
  EC50: > 150 µM (not active)
[22]
  EC50: 89.1 µM (active)
[23]
  EC50: 700 nM (active)
[24]
  IC50: > 9.99 µM (inactive)
Streptokinase A
  EC50: > 150 µM (not active)

## Cc1ccc(CNC(=O)C2CCN(S(=O)(=O)c3ccc(Br)s3)CC2)cc1
Beta-galactosidase
  IC50: > 80 µM (inactive)
